Key:
Format in all cases: in vivo
[1] = test system: barnyardgrass (Echinochloa crus-galli); assay: Test B flooded paddy test, barnyardgrass; conditions: Echinochloa crus-galli; 250 g ai/ha, Flood; visual rating after 13 to 15 days; scale 0 to 100, 0 is no effect, 100 is complete control; read-out: Plant response rating, Barnyardgrass
Summary of the method: (§1)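 Plants grown to 2-leaf stage, pots flooded to 3 cm above soil and compound applied directly to paddy water, depth maintained throughout. After 13-15 days in greenhouse, visual rating against untreated controls on 0-100 scale (0 no effect, 100 complete control).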

[2] = test system: pigweed (Amaranthus retroflexus); assay: Test A preemergence, pigweed; conditions: Amaranthus retroflexus, pre-emergence, 240 h, Preemergence, 0 to 100 scale (0 no effect, 100 complete control), read-out: Plant response rating, Pigweed; for pest or weed control at 125 g/ha: 125 g ai/ha; for pest or weed control at 31 g/ha: 31 g ai/ha
Summary of the method: (§2)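 Scores (0 no effect to 100 complete control) come from visual comparison of treated and untreated plants kept about 10 days in a greenhouse. Growth medium was a loam/sand blend; preemergence treatment was a directed soil spray, postemergence treatment went onto plants at the 1–2 leaf stage.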

[3] = test system: ragweed (common ragweed, Ambrosia elatior); assay: Test A preemergence, ragweed; conditions: Ambrosia artemisiifolia, pre-emergence, 240 h, Preemergence, 0 to 100 scale (0 no effect, 100 complete control), read-out: Plant response rating, Ragweed; for pest or weed control at 125 g/ha: 125 g ai/ha; for pest or weed control at 31 g/ha: 31 g ai/ha
Summary of the method: as §2

[4] = test system: sedge, umbrella (small-flower umbrella sedge, Cyperus difformis); assay: Test B flooded paddy test, umbrella sedge; conditions: Cyperus difformis; 250 g ai/ha, Flood; visual rating after 13 to 15 days; scale 0 to 100, 0 is no effect, 100 is complete control; read-out: Plant response rating, Sedge, Umbrella
Summary of the method: as §1

[5] = test system: ducksalad (Heteranthera limosa); assay: Test B flooded paddy test, ducksalad; conditions: Heteranthera limosa; 250 g ai/ha, Flood; visual rating after 13 to 15 days; scale 0 to 100, 0 is no effect, 100 is complete control; read-out: Plant response rating, Ducksalad
Summary of the method: as §1

[6] = test system: foxtail, giant (giant foxtail, Setaria faberii); assay: Test A postemergence, giant foxtail; conditions: Setaria faberi, post-emergence, 240 h, postemergence, 0 to 100 scale, 0 is no effect, 100 is complete control, approximately 10 days, read-out: Plant response rating, Foxtail, Giant; for pest or weed control at 125 g/ha: 125 g ai/ha; for pest or weed control at 31 g/ha: 31 g ai/ha
Summary of the method: as §2

[7] = test system: galium (catchweed bedstraw, Galium aparine); assay: Test A postemergence, galium; conditions: Galium, post-emergence, 240 h, postemergence, 0 to 100 scale, 0 is no effect, 100 is complete control, approximately 10 days, read-out: Plant response rating, Galium; for pest or weed control at 125 g/ha: 125 g ai/ha; for pest or weed control at 31 g/ha: 31 g ai/ha
Summary of the method: as §2

[8] = test system: pigweed (Amaranthus retroflexus); assay: Test A postemergence, pigweed; conditions: Amaranthus retroflexus, post-emergence, 240 h, postemergence, 0 to 100 scale, 0 is no effect, 100 is complete control, approximately 10 days, read-out: Plant response rating, Pigweed; for pest or weed control at 125 g/ha: 125 g ai/ha; for pest or weed control at 31 g/ha: 31 g ai/ha
Summary of the method: as §2

rice (Oryza sativa) = assay: Test B flooded paddy test, rice; conditions: Oryza sativa; 250 g ai/ha, Flood; visual rating after 13 to 15 days; scale 0 to 100, 0 is no effect, 100 is complete control; read-out: Plant response rating, Rice
Summary of the method: as §1

[9] = test system: barnyardgrass (Echinochloa crus-galli); assay: Test A preemergence, barnyardgrass; conditions: Echinochloa crus-galli, pre-emergence, 240 h, Preemergence, 0 to 100 scale (0 no effect, 100 complete control), read-out: Plant response rating, Barnyardgrass; for pest or weed control at 125 g/ha: 125 g ai/ha; for pest or weed control at 31 g/ha: 31 g ai/ha
Summary of the method: as §2

[10] = test system: foxtail, giant (giant foxtail, Setaria faberii); assay: Test A preemergence, giant foxtail; conditions: Setaria faberi, pre-emergence, 240 h, Preemergence, 0 to 100 scale (0 no effect, 100 complete control), read-out: Plant response rating, Foxtail, Giant; for pest or weed control at 125 g/ha: 125 g ai/ha; for pest or weed control at 31 g/ha: 31 g ai/ha
Summary of the method: as §2

kochia (Kochia scoparia) [11] = assay: Test A preemergence, kochia; conditions: Bassia scoparia, pre-emergence, 240 h, Preemergence, 0 to 100 scale (0 no effect, 100 complete control), read-out: Plant response rating, Kochia; for pest or weed control at 125 g/ha: 125 g ai/ha; for pest or weed control at 31 g/ha: 31 g ai/ha
Summary of the method: as §2

corn (Zea mays) = assay: Test A postemergence, corn; conditions: Zea mays, post-emergence, 240 h, postemergence, 0 to 100 scale, 0 is no effect, 100 is complete control, approximately 10 days; for Corn plant response rating (crop injury, 0 = no effect, 100 = complete kill) at 125 g/ha: 125 g ai/ha; for Corn plant response rating (crop injury, 0 = no effect, 100 = complete kill) at 31 g/ha: 31 g ai/ha
Summary of the method: as §2

[12] = test system: wheat (Triticum aestivum); assay: Test A postemergence, wheat; conditions: Triticum aestivum, post-emergence, 240 h, postemergence, 0 to 100 scale, 0 is no effect, 100 is complete control, approximately 10 days, read-out: Plant response rating, Wheat; for plant injury at 125 g/ha: 125 g ai/ha; for plant injury at 31 g/ha: 31 g ai/ha
Summary of the method: as §2

kochia (Kochia scoparia) [13] = assay: Test A postemergence, kochia; conditions: Bassia scoparia, post-emergence, 240 h, postemergence, 0 to 100 scale, 0 is no effect, 100 is complete control, approximately 10 days, read-out: Plant response rating, Kochia; for pest or weed control at 125 g/ha: 125 g ai/ha; for pest or weed control at 31 g/ha: 31 g ai/ha
Summary of the method: as §2

Row | SMILES | pest or weed control at 250 g/ha [1] | pest or weed control at 125 g/ha [2] | pest or weed control at 125 g/ha [3] | pest or weed control at 250 g/ha [4] | pest or weed control at 250 g/ha [5] | pest or weed control at 125 g/ha [6] | pest or weed control at 125 g/ha [7] | pest or weed control at 125 g/ha [8] | plant injury at 250 g/ha (rice (Oryza sativa)) | pest or weed control at 125 g/ha [9] | pest or weed control at 125 g/ha [10] | pest or weed control at 125 g/ha (kochia (Kochia scoparia) [11]) | Corn plant response rating (crop injury, 0 = no effect, 100 = complete kill) at 125 g/ha (corn (Zea mays)) | plant injury at 125 g/ha [12] | pest or weed control at 125 g/ha (kochia (Kochia scoparia) [13]) | pest or weed control at 31 g/ha [2] | pest or weed control at 31 g/ha [3] | pest or weed control at 31 g/ha [6] | pest or weed control at 31 g/ha [7] | pest or weed control at 31 g/ha [8] | other results
1 | FC(F)C(F)(F)COc1c(Br)cccc1Oc1ncc(Cl)cn1 [Compound 18, 2-[3-bromo-2-(2,2,3,3-tetrafluoropropoxy)phenoxy]-5-chloropyrimidine] | 0% | 100% | 0% | 0% | 30% | 40% | 80% | 100% | 0% | 100% | 100% | 30% | 20% | 0% | 100% |  |  |  |  |  | pest or weed control at 500 g/ha ([2]; 500 g ai/ha): 100%; pest or weed control at 500 g/ha ([3]; 500 g ai/ha): 10%; pest or weed control at 500 g/ha ([6]; 500 g ai/ha): 100%; pest or weed control at 500 g/ha ([7]; 500 g ai/ha): 100%; pest or weed control at 500 g/ha ([8]; 500 g ai/ha): 100%; pest or weed control at 500 g/ha ([9]; 500 g ai/ha): 100%; pest or weed control at 500 g/ha ([10]; 500 g ai/ha): 100%; pest or weed control at 500 g/ha (kochia (Kochia scoparia) [11]; 500 g ai/ha): 100%; Corn plant response rating (crop injury, 0 = no effect, 100 = complete kill) at 500 g/ha (corn (Zea mays); 500 g ai/ha): 30%; plant injury at 500 g/ha ([12]; 500 g ai/ha): 20%; pest or weed control at 500 g/ha (kochia (Kochia scoparia) [13]; 500 g ai/ha): 100%
2 | N#Cc1cccc(Oc2ncc(F)cn2)c1OCCCC(F)(F)F [Compound 4, 3-[(5-fluoro-2-pyrimidinyl)oxy]-2-(4,4,4-trifluorobutoxy)benzonitrile] | 50% | 100% | 30% | 95% | 90% | 100% | 90% | 100% | 30% | 100% | 100% | 90% | 90% | 20% | 100% | 90% | 10% | 70% | 50% | 100% | pest or weed control at 31 g/ha [9]: 60%; pest or weed control at 31 g/ha [10]: 100%; pest or weed control at 31 g/ha (kochia (Kochia scoparia) [11]): 40%; Corn plant response rating (crop injury, 0 = no effect, 100 = complete kill) at 31 g/ha (corn (Zea mays)): 40%; plant injury at 31 g/ha [12]: 20%; pest or weed control at 31 g/ha (kochia (Kochia scoparia) [13]): 90%
3 | Cc1cccc(Oc2ncc(Cl)cn2)c1OCC(F)(F)F [Compound 63] | 0% | 0% | 0% | 90% | 100% | 0% | 0% | 0% | 0% | 0% | 0% | 0% | 0% | 0% | 0% | 0% | 0% | 0% | 0% | 0% | pest or weed control at 31 g/ha [9]: 0%; pest or weed control at 31 g/ha [10]: 0%; pest or weed control at 31 g/ha (kochia (Kochia scoparia) [11]): 0%; Corn plant response rating (crop injury, 0 = no effect, 100 = complete kill) at 31 g/ha (corn (Zea mays)): 0%; plant injury at 31 g/ha [12]: 0%; pest or weed control at 31 g/ha (kochia (Kochia scoparia) [13]): 0%

From patent US10485235B2, “Aryloxypyrimidinyl ethers as herbicides” (FMC Corporation, priority 2015, dated 2019)
